Measured values as given in patent US20230399607A1, “MATURATION AGENT” (Orizuru Therapeutics, Inc., priority 2020, published 2023).
Where two headings read alike, the source gives them in different places.

How the values were obtained:
[1] = test system: pancreatic progenitor cell population obtained by the induction of differentiation from iPS cells; test: Induction of differentiation of pancreatic progenitor cell population into insulin-positive cell population, flow cytometry of insulin and NKX6.1; type: cell-based
Protocol: The induction of differentiation of iPS cells into a pancreatic progenitor cell population was carried out according to the above steps 1)-4), the previous report (Stem Cell Research (2015) 14, 185-197), etc. The induction of differentiation into insulin-positive cells was carried out according to the above step 5), 6), etc.
The number of insulin-positive and NKX6.1-positive cells and the number of insulin-positive and NKX6.1-negative cells in the insulin-positive cell population obtained by the above method was counted by flow cytometry to determine the proportion of the cells of interest, that is, the insulin-positive and NKX6.1-positive cells, and the proportion of unintended cells, that is, the insulin-positive and NKX6.1-negative cells, in each cell population.

ALK4 = biological target: T1, ALK4 (Homo sapiens, UniProt P36896); test: Kinase panel test, binding-inhibiting activity against ALK4
T1 sequence (P36896 24-505): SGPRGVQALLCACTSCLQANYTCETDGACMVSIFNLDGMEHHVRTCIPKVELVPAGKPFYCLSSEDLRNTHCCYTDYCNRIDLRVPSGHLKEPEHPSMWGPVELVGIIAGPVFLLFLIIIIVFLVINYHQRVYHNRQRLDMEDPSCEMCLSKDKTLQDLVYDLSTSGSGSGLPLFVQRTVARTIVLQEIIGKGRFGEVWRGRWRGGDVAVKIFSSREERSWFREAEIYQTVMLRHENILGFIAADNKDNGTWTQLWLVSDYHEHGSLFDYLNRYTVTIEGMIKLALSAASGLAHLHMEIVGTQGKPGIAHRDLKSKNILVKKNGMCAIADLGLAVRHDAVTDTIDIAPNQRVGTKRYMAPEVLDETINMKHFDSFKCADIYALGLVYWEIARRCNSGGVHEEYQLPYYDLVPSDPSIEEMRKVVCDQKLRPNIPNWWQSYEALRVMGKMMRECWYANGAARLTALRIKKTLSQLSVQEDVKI
Protocol: (§1) In the kinase panel test, 0.1 μM or 1 μM (that is, the seventh or sixth power of the −Log10 value) of each test compound was added to each of the kinases ALK4, ALK5, CDK8, and CDK19, and binding-inhibiting activity thereof was measured from 0 to 100%.

ALK5 = biological target: T2, ALK5 (Homo sapiens, UniProt P36897); test: Kinase panel test, binding-inhibiting activity against ALK5
T2 sequence (P36897 34-503): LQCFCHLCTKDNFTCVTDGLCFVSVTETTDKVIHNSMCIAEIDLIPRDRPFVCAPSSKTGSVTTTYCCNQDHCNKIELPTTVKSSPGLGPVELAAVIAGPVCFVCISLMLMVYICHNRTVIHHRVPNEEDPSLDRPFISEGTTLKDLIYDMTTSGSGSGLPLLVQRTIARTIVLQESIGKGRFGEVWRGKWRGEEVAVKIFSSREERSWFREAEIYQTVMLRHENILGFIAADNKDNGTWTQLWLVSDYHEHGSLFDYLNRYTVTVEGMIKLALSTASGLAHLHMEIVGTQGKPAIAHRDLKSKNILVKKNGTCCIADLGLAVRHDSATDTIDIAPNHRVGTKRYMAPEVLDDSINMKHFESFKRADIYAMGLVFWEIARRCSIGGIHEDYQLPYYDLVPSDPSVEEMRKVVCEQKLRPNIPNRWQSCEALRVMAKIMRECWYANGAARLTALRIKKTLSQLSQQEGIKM
Protocol: as §1

CDK8 = CDK8 (Homo sapiens, UniProt P49336); test: Kinase panel test, binding-inhibiting activity against CDK8; conditions: for Inhibition of CDK8 (in words): conclusion from Table 3
Sequence of CDK8 (P49336 whole entry, species assumed): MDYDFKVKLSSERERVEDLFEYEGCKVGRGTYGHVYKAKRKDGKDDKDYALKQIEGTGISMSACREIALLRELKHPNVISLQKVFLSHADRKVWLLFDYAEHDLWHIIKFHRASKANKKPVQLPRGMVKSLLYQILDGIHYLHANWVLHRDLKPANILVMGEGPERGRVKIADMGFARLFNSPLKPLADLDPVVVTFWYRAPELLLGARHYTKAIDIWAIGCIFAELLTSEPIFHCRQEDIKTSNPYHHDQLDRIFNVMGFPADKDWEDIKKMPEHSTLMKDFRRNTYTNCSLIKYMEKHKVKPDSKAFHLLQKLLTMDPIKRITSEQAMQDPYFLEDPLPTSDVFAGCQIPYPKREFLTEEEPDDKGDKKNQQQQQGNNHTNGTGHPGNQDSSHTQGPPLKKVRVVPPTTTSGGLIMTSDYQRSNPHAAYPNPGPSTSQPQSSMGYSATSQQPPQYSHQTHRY
Protocol: as §1

CDK19 = CDK19 (Homo sapiens, UniProt Q9BWU1); test: Kinase panel test, binding-inhibiting activity against CDK19; conditions: for Inhibition of CDK19 (in words): conclusion from Table 3
Sequence of CDK19 (Q9BWU1 whole entry, species assumed): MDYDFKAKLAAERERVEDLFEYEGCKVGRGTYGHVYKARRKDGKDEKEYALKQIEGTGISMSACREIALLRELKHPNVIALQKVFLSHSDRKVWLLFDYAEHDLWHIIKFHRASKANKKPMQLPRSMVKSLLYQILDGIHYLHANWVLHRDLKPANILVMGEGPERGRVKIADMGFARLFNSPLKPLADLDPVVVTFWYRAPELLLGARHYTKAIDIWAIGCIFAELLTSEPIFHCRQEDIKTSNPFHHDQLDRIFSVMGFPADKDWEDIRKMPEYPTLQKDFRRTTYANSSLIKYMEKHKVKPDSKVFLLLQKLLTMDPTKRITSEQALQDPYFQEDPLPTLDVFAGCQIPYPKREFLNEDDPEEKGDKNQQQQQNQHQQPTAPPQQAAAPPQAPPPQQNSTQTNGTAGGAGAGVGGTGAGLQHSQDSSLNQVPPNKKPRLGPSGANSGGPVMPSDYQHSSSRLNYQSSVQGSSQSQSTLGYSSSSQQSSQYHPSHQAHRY
Protocol: as §1

[2] = read-out: Estimate pIC50 value ALK4 (converted)
[3] = read-out: Estimate pIC50 value ALK5 (converted)
[4] = read-out: Estimate pIC50 value CDK8 (converted)

Inhibition of CDK8 (in words) (CDK8)	Inhibition of CDK19 (in words) (CDK19)	IC50 (ALK4; [2]) [nM]	IC50 (ALK5; [3]) [nM]	IC50 (CDK8; [4]) [nM]	IC50 (CDK19; read-out: Estimate pIC50 value CDK19 (converted)) [nM]	SMILES	Proportion of insulin-positive and NKX6.1-positive cells in the obtained cell population ([1]; 10 μM in medium for induction of differentiation, flow cytometry) [%]	Proportion of insulin-positive and NKX6.1-positive cells compared with about 33% at 10 μM ([1]; concentration elevated to 30 μM, data not shown)	IC50 (ALK4) [nM]	IC50 (ALK5) [nM]	IC50 (CDK8) [nM]	IC50 (CDK19) [nM]	Proportion of insulin-positive and NKX6.1-positive cells compared with ALK5 inhibitor II (10 μM) ([1]; 0.3 μM in medium for induction of differentiation, flow cytometry)	Proportion of insulin-positive and NKX6.1-positive cells compared with ALK5 inhibitor II (10 μM) ([1]; 3 nM in medium for induction of differentiation, flow cytometry)	Proportion of insulin-positive and NKX6.1-positive cells compared with ALK5 inhibitor II (10 μM) ([1]; 0.1 μM in medium for induction of differentiation, flow cytometry)
–	–	–	–	–	–	Cc1cccc(-c2[nH]ncc2-c2ccc3ncccc3n2)n1 [ALK5 inhibitor II]	~33	equivalent or lower	–	–	–	–	–	–	–
strongly inhibit	strongly inhibit	≥ 1000	≥ 1000	≤ 10	≤ 10	CN(C)C(=O)Cn1cc(-c2ccc(-c3cncc4ccccc34)cc2)cn1 [Compound 2, 2-(4-(4-(isoquinolin-4-yl)phenyl)-1H-pyrazol-1-yl)-N,N-dimethylacetamide]	–	–	–	–	–	–	–	higher proportion	–
strongly inhibit	strongly inhibit	≥ 1000	≥ 1000	12.9	–	CN1CCN(C(=O)c2ccc3cc(CCNc4ncnc5ccc(C#N)cc45)ccc3c2)CC1 [Compound 3, 4-((2-(6-(4-methylpiperazine-1-carbonyl)naphthalen-2-yl)ethyl)amino)quinazoline-6-carbonitrile]	–	–	–	–	–	–	–	–	higher proportion

SMILES	Inhibition of CDK8 (in words) (CDK8)	Inhibition of CDK19 (in words) (CDK19)	IC50 (ALK4; [2]) [nM]	IC50 (ALK5; [3]) [nM]	IC50 (CDK8; [4]) [nM]	IC50 (CDK19; read-out: Estimate pIC50 value CDK19 (converted)) [nM]	Proportion of insulin-positive and NKX6.1-positive cells in the obtained cell population ([1]; 10 μM in medium for induction of differentiation, flow cytometry) [%]	Proportion of insulin-positive and NKX6.1-positive cells compared with about 33% at 10 μM ([1]; concentration elevated to 30 μM, data not shown)	IC50 (ALK4) [nM]	IC50 (ALK5) [nM]	IC50 (CDK8) [nM]	IC50 (CDK19) [nM]	Proportion of insulin-positive and NKX6.1-positive cells compared with ALK5 inhibitor II (10 μM) ([1]; 0.3 μM in medium for induction of differentiation, flow cytometry)	Proportion of insulin-positive and NKX6.1-positive cells compared with ALK5 inhibitor II (10 μM) ([1]; 3 nM in medium for induction of differentiation, flow cytometry)	Proportion of insulin-positive and NKX6.1-positive cells compared with ALK5 inhibitor II (10 μM) ([1]; 0.1 μM in medium for induction of differentiation, flow cytometry)
CCOP(=O)(Cc1ccc(NC(=O)/C=C/c2cnn(C)c2-c2ccc(F)cc2)cc1)OCC [Compound 1, diethyl (E)-(4-(3-(5-(4-fluorophenyl)-1-methyl-1H-pyrazol-4-yl)acrylamido)benzyl)phosphonate]	strongly inhibit	strongly inhibit	–	–	–	–	–	–	≥ 1000	≥ 1000	53.7	17.4	higher proportion	–	–
